Results taken from patent publication US6872517B2, “Early diagnosis of cancerous and precancerous conditions by leakage of signature peptides and carbohydrates into the bloodstream” (Lankenau Institute for Medical Research, priority 2000, dated 2005).

What was measured:
DMH-treated colon = test: Barrier function of DMH-treated colon (Rt, 14C-D-mannitol flux, aberrant crypts); format: in vivo, rat
Source text: In addition, however, weekly changes in barrier function of DMH-treated colon were examined, with an emphasis on assessing that function by means of electrophysiology (Rt) and transepithelial flux of ^14C-D-mannitol.

rat colon epithelium = test: Increased luminal EGF in rat colon; format: in vivo
Source text: The biological significance here is that luminal fluids of many epithelial tissues contain very high levels of certain growth factors (Barnard et al., 1995; Jorgenson et al., 1990; Nexo et al., 1992; Mroczkowski and Reich, 1993), whereas the receptors for these growth factors are normally found on the abluminal cell surface. (Bishop and Wen, 1994; Muto et al., 1991; Thompson, 1988; Scheving et al., 1989). […] (Mullin, 1997). […] This is a direct consequence of the carcinogen's effect on colonic crypt epithelial TJs as described below.

LLC-PK1 = details: cited from earlier work
occludin = details: cited from earlier work
[1] = system: renal epithelial cell line; details: cited from earlier work
[2] = as weeks of DMH exposure progressed

CNNC [DMH, dimethylhydrazine]
transepithelial electrical resistance (Rt) (DMH-treated colon; [2]): irregular but significant decline | transepithelial flux of 14C-D-mannitol (DMH-treated colon; [2]): rise | number of aberrant colon crypts (DMH-treated colon; with increasing weeks of DMH exposure): increased in number

EGF: Epidermal Growth Factor, a growth factor (NSDSECPLSHDGYCLHDGVCMYIEALDKYACNCVVGYIGERCQYRDLKWWELR; Epidermal growth factor; UniProt P01133 971-1023, looked up)
carcinomas in carcinogen-treated rat colon (rat colon epithelium; colon treated with dimethylhydrazine, luminal EGF increased): greater number and size of carcinomas | effect on normal rat colon epithelium (rat colon epithelium; increased EGF concentration in colonic lumen): does not produce any observed effect

CCCCCCCCCCCCCC(=O)O[C@@H]1[C@@H](C)[C@@]2(O)[C@@H](C=C(CO)C[C@]3(O)C(=O)C(C)=C[C@@H]23)[C@@H]2C(C)(C)[C@]12OC(C)=O [TPA]
transepithelial electrical resistance (Rt) (LLC-PK1; LLC-PK1 cell line): rapid, dose dependent decrease | penetration of tight junctions by ruthenium red (LLC-PK1; TPA-treated cell sheets, not control cultures): able to penetrate | size of molecules the TJs became leaky to (LLC-PK1; TPA-treated cell sheets): ≤ 2 million | crossing of paracellular markers D-mannitol (mw 182) and polyethylene glycol (mw 4000) (LLC-PK1; TPA-treated epithelial cell sheet vs control cell sheet): much more rapidly | morphology after chronic exposure (LLC-PK1; chronic exposure, 4 days or greater): polyp-like, multilayered foci | ZO-1 expression (occludin; immunofluorescence): down regulated | localization of occludin (occludin; immunofluorescence): very little change | threonine phosphorylation state of occludin (occludin; in association with increased TJ permeability): decrease | transepithelial leakiness to salts [1]: capable of causing transepithelial leakiness to salts
